The nature of test [1]: Cytotoxicity against human HL60 cells assessed as reduction in cell viability after 72 hrs by MTT assay. It counts as functional, cell-based. As to conditions: HL-60, 72 h.
Test [2] can be described thus: Cytotoxicity against human HL60 cells assessed as inhibition of cell growth at 100 uM after 72 hrs by MTT assay. In kind it is functional. The following applies: HL-60, 72 h, read-out: GI. On the technique in general: Formazan colour is commonly taken as a measure of viable cells.
For test [3], the target named is T1, Bcl-2-like protein 1 (Homo sapiens, UniProt Q07817). Description: Inhibition of Bcl-XL (unknown origin) using FAM-Bid peptide as substrate at 50 uM by fluorescence polarization-based assay.
T1 sequence (Q07817 whole entry): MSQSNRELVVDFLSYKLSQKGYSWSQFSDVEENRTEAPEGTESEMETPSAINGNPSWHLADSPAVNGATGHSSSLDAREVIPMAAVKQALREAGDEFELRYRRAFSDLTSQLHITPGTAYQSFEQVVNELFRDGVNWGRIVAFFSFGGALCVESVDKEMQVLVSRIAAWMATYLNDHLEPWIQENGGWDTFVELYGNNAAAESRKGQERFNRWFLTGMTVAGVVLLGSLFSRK
For test [4], the target named is T2, Apoptosis regulator Bcl-2 (Homo sapiens, UniProt P10415). Briefly: Inhibition of Bcl-2 (unknown origin) using FAM-Bid peptide as substrate at 50 uM by fluorescence polarization-based assay. A general note: In fluorescence polarisation assays a small probe gives low polarisation when free and higher when bound to something large.
T2 sequence (P10415 whole entry): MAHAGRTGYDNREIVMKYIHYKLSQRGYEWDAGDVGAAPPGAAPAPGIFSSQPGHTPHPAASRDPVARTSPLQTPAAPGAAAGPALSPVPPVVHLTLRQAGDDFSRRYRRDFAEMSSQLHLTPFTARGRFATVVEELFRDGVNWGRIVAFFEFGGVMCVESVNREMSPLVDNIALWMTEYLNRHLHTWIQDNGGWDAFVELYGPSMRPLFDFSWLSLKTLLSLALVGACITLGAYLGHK
For test [5], the target named is T2, Apoptosis regulator Bcl-2. Description: Inhibition of Bcl-2 (unknown origin) using FAM-Bid peptide as substrate by fluorescence polarization-based assay.
Test [6] addresses T1, Bcl-2-like protein 1. Description: Inhibition of Bcl-XL (unknown origin) using FAM-Bid peptide as substrate by fluorescence polarization-based assay.
Another test concerns HEK293. Description: Cytotoxicity against human HEK293 cells assessed as reduction in cell viability after 72 hrs by MTT assay. It counts as cell-based. The following applies: HEK293, 72 h.

This note sets out measurements from ChEMBL document CHEMBL3826894, “Structural modification of luteolin from Flos Chrysanthemi leads to increased tumor cell growth inhibitory activity” (Bioorg Med Chem Lett, 2016).

For `COc1cc(O)c2c(=O)cc(-c3cc(O)c(O)c(Cc4cccc(Cl)c4)c3)oc2c1`, in test [1], the half-maximal inhibitory concentration (IC50) worked out at 2.92 µM. Besides, the inhibition of growth at 100 µM in test [2] stood at 85.2%.
With `O=c1cc(-c2ccc(O)c(O)c2)oc2cc(O)cc(O)c12` [LUTEOLIN], the inhibition was determined as 49% on Bcl-2-like protein 1 [3] and 46% in test [4]. Also, the half-inhibitory concentration (IC50) in test [1] was more than 100 µM. Further, the inhibition of growth at 100 µM in test [2] was determined as 44%.
On to `O=c1cc(-c2cc(O)c(O)cc2Cc2cccc(Cl)c2)oc2cc(O)cc(O)c12`, for which the half-maximal inhibitory concentration (IC50) in test [1] turned out to be 64.4 µM. Besides, the inhibition of growth at 100 µM in test [2] turned out to be 65.2%.
For the molecule `COc1cc(O)c2c(=O)cc(-c3cc(O)c(O)cc3Cc3ccccc3Cl)oc2c1`, the half-maximal inhibitory concentration (IC50) in test [1] worked out at 20.5 µM. Besides, the inhibition of growth at 100 µM in test [2] worked out at 85.8%.
On to `Cc1cccc(Cc2cc(-c3cc(=O)c4c(O)cc(O)cc4o3)cc(O)c2O)c1`, for which the IC50 in test [1] was determined as 20.9 µM. For the same molecule, in test [2], the inhibition of growth at 100 µM turned out to be 71.9%.
In the case of `O=c1cc(-c2cc(O)c(O)c(Cc3ccccc3Cl)c2)oc2cc(O)cc(O)c12`, in test [1], the IC50 is more than 100 µM. Further, in test [2], the inhibition of growth at 100 µM was found to be 30.6%.
Consider `COc1cc(O)c2c(=O)cc(-c3cc(O)c(O)c(Cc4ccccc4Cl)c3)oc2c1`, for which the IC50 in test [1] was found to be 13.9 µM. In addition, in test [2], the inhibition of growth at 100 µM stood at 80.8%.
Turning to `COc1cc(O)c2c(=O)cc(-c3cc(O)c(O)cc3Cc3ccc(C)cc3)oc2c1`, the IC50 in test [1] came out at 10.9 µM. Also, in test [2], the inhibition of growth at 100 µM is 96.4%.
On to `Cc1ccc(Cc2cc(-c3cc(=O)c4c(O)cc(O)cc4o3)cc(O)c2O)cc1`, for which the IC50 in test [1] was found to be 100 µM. Also, the inhibition of growth at 100 µM in test [2] worked out at 49.1%.
Consider `COc1cc(O)c2c(=O)cc(-c3cc(O)c(O)c(Cc4ccccc4C)c3)oc2c1`, for which the IC50 in test [1] is 14.8 µM. Moreover, in test [2], the inhibition of growth at 100 µM is 68.9%.
For `COc1cc(O)c2c(=O)cc(-c3cc(O)c(O)cc3Cc3ccccc3)oc2c1`, the inhibition (on Bcl-2-like protein 1 [3]; in test [4]) was 100% throughout. The Ki was 1.3 µM in test [5] and 2.5 µM at Bcl-2-like protein 1 [6]. Besides, the IC50 in test [1] was found to be 14.9 µM. Besides, the inhibition of growth at 100 µM in test [2] was 82%.
Turning to `Cc1ccccc1Cc1cc(-c2cc(=O)c3c(O)cc(O)cc3o2)cc(O)c1O`, the half-maximal inhibitory concentration (IC50) in test [1] was more than 100 µM. Also, the inhibition of growth at 100 µM in test [2] stood at 31.5%.
In the case of `COc1cc(O)c2c(=O)cc(-c3cc(O)c(O)cc3Cc3cccc(C)c3)oc2c1`, the IC50 with HEK293 amounted to 74.7 µM; in test [1], 9.97 µM. Further, in test [2], the inhibition of growth at 100 µM was found to be 86.1%.
As for `COc1cc(O)c2c(=O)cc(-c3cc(O)c(O)c(Cc4ccccc4)c3)oc2c1`, in test [1], the half-maximal inhibitory concentration (IC50) was more than 100 µM. In addition, the inhibition of growth at 100 µM in test [2] was determined as 37.5%.
For `Cc1cc2c(C(C)C)c(O)c(O)c(C=O)c2c(O)c1-c1c(C)cc2c(C(C)C)c(O)c(O)c(C=O)c2c1O` [GOSSYPOL], the inhibition (on Bcl-2-like protein 1 [3]; in test [4]) was 100% each time. Further, the IC50 with HEK293 was 11 µM; in test [1], 6.6 µM. The same molecule returned a Ki at Bcl-2-like protein 1 [6] of 0.31 µM. In addition, the inhibition of growth at 100 µM in test [2] turned out to be 92%.
In the case of `COc1cc(O)c2c(=O)cc(-c3cc(O)c(O)cc3Cc3ccc(Cl)cc3)oc2c1`, in test [1], the concentration for half-maximal inhibition (IC50) came to 11.7 µM. Also, the inhibition of growth at 100 µM in test [2] turned out to be 92.1%.
With `O=c1cc(-c2cc(O)c(O)cc2Cc2ccccc2Cl)oc2cc(O)cc(O)c12`, in test [1], the half-inhibitory concentration (IC50) stood at 41.8 µM. The inhibition of growth at 100 µM in test [2] came out at 73.4%.
`COc1cc(O)c2c(=O)cc(-c3cc(O)c(O)cc3Cc3ccccc3C)oc2c1`: the IC50 in test [1] is 14.9 µM. In addition, the inhibition of growth at 100 µM in test [2] amounted to 90.2%.
On to `O=c1cc(-c2cc(O)c(O)cc2Cc2ccccc2)oc2cc(O)cc(O)c12`, for which the inhibition on Bcl-2-like protein 1 [3] amounted to 70%; in test [4] it was 96%. Also, the figures for the IC50 (in the test on HEK293; in test [1]) were 90.7 µM and 35.9 µM, respectively. In addition, the values for the inhibitory constant (Ki) (in test [5]; on Bcl-2-like protein 1 [6]) were 4.6 µM and 8.4 µM, respectively. Also, the inhibition of growth at 100 µM in test [2] stood at 80%.
For the molecule `O=c1cc(-c2cc(O)c(O)c(Cc3ccccc3)c2)oc2cc(O)cc(O)c12`, the half-inhibitory concentration (IC50) in test [1] came to 44 µM. Besides, the inhibition of growth at 100 µM in test [2] amounted to 78%.
Take `COc1cc(O)c2c(=O)cc(-c3cc(O)c(O)cc3Cc3cccc(Cl)c3)oc2c1`: the IC50 in test [1] came out at 10.3 µM. In addition, in test [2], the inhibition of growth at 100 µM stood at 85.5%.
In the case of `O=c1cc(-c2cc(O)c(O)c(Cc3cccc(Cl)c3)c2)oc2cc(O)cc(O)c12`, the IC50 in test [1] is 28.8 µM. Further, the inhibition of growth at 100 µM in test [2] was 76.4%.
With `O=c1cc(-c2cc(O)c(O)c(Cc3ccc(Cl)cc3)c2)oc2cc(O)cc(O)c12`, in test [1], the IC50 is more than 100 µM. For the same molecule, the inhibition of growth at 100 µM in test [2] turned out to be 48.6%.
Turning to `O=c1cc(-c2cc(O)c(O)cc2Cc2ccc(Cl)cc2)oc2cc(O)cc(O)c12`, the IC50 in test [1] came to 7.05 µM. Moreover, the inhibition of growth at 100 µM in test [2] was found to be 100%.
Take `COc1cc(O)c2c(=O)cc(-c3cc(O)c(O)c(Cc4cccc(C)c4)c3)oc2c1`: the IC50 in test [1] was determined as 63 µM. Moreover, the inhibition of growth at 100 µM in test [2] worked out at 55%.
Regarding `Cc1ccc(Cc2cc(O)c(O)cc2-c2cc(=O)c3c(O)cc(O)cc3o2)cc1`, in test [1], the IC50 was more than 100 µM. Further, the inhibition of growth at 100 µM in test [2] is 19.9%.

A word on the IC50: it is the midpoint of a concentration-inhibition curve. For orientation: inhibition means the drop in the measured response relative to a control, in per cent. A lower inhibition goes with a response near the control. The Ki is the equilibrium dissociation constant of an inhibitor or competing ligand from its target. Read a high Ki as weaker binding.
